Reference: PMC8752549, “Esc peptides as novel potentiators of defective cystic fibrosis transmembrane conductance regulator: an unprecedented property of antimicrobial peptides” (Cellular and Molecular Life Sciences: CMLS, 2021)
Where no end group is shown, it is not given here. [ ]: non-standard residue; d: D form.

How the values were obtained:
F508del-CFTR [1] = test: CFTR-mediated transepithelial conductance (TEER), F508del-FRT; format: cell-based; details: F508del-FRT pre-incubated 24 h with 1 µM VX-809; 10 µM peptide + 20 µM FSK, 10 min; inhibition with 30 µM PPQ102; n ≥ 6
Experimental: To evaluate CFTR activation, the same saline solution was used. Cells expressing F508del mutation were incubated with 1 µM VX-809 to favor the mutant protein rescue. After measurement of basal TEER, 20 µM FSK + 10 µM GEN as positive control, or FSK + peptides at the desired concentration were added on the epithelium apical side. Finally, 30 µM PPQ102 was added on the epithelium apical side to block CFTR, so to measure the own activity of CFTR. TEER measurement was performed at 37 °C after 10 min from the addition of each compound. From the values of TEER measured before and after CFTR inhibition, we calculated the CFTR-dependent TEER for each condition. All values of TEER were converted to transepithelial conductance (TEEC) using the formula TEEC = 1/TEER [67].

F508del-CFTR [2] = test: Inside-out patch-clamp (macro-patches), F508del-FRT cells; format: biochemical; details: 1 mM ATP + 125 nM PKA catalytic subunit + 10 µM peptide in intracellular bath, n ≥ 3
Experimental: Whole-cell and inside-out membrane currents were recorded in FRT cells stably expressing F508del CFTR after incubation with 1 µM of the corrector VX-809 for 24 h to increase mutated CFTR membrane expression.
For inside-out patch-clamp experiments, the pipette solution contained (in mM): 150 N-methyl-D-glucamine chloride (NMDG-Cl), 3 CaCl2, 2 MgCl2, 10 Na-Hepes (pH 7.3). The bath solution for these experiments contained (in mM): 150 NMDG-Cl, 2 MgCl2, 10 EGTA, 10 Na-Hepes, 1 ATP, which was supplemented with 125 nM catalytic subunit of PKA (Promega, […]) and peptides at 10 µM. Pipette electrical resistance for both whole-cell and inside-out experiments was 3–5 MΩ.
For both patch configurations, the protocol to correlate current intensity and voltage for stimulation consisted of 500-ms voltage steps from -100 to + 100 mV or from -80 to + 120 mV in 20 mV increments, starting from a holding potential of -60 mV. The time-dependence of CFTR activation and inactivation was monitored by application of steps of 50 ms pulses to − 100, − 50, 0, 50 and 100 mV every 5 s from a holding potential of − 60 mV. The interval between steps was 4 s. Membrane currents were filtered at 1 kHz and digitized at 5 kHz by a low–pass 4–pole Bessel filter.

[3] = system: F508del-FRT and wt-FRT cells; format: cell-based, Fischer rat
Experimental: (§1) To evaluate the lung epithelia integrity, FRT and CFBE41o- cells expressing mutated or functional CFTR were seeded on permeable supports (24 Millicell plates PSHT01QR1) and incubated for 24 h in their standard culture medium in the presence of peptides, at different concentration. DMSO, 0.1% v:v, final concentration) that was used to solubilize each compound was included as control. After 24 h, the medium was replaced with saline solution containing (in mM): 130 NaCl, 2.7 KCl, 1.5 KH2PO4, 1 CaCl2, 0.5 MgCl2, 10 glucose, 10 Na-Hepes (pH, 7.4). Saline solution was added to both apical and basolateral compartments of the permeable supports. Samples were incubated for 10 min at 37 °C and TEER was measured in basal conditions without CFTR activation, with the epithelial voltmeter (MILLICELL ERS-2, Millipore Burlington, MA).

[4] = system: F508del-CFBE41o- and wt-CFBE41o- cells; format: cell-based
Experimental: as §1

[5] = cited from earlier work
Description: (§2) During the last years, several studies have been conducted to identify compounds with suitable antibacterial properties. Antimicrobial peptides (AMPs) are a promising and effective therapeutic resource. Indeed, they rapidly kill microbial pathogens by perturbing their plasma-membrane thus limiting the induction of bacterial resistance compared to conventional antibiotics. In our laboratory, we identified a frog-skin derived membrane-active cationic AMP, i.e., Esc(1–21) […]-NH2 [24], with biocidal activity against the planktonic and the biofilm forms of P ...

[6] = system: P. aeruginosa pulmonary infection; details: cited from earlier work
Description: as §2

wt-CFBE and F508del-CFBE = details: monolayers of wt-CFBE and F508del-CFBE; cited from earlier work
Description: as §2

[7] = system: null-FRT cells not expressing CFTR; test: Whole-cell patch-clamp, null-FRT cells; format: cell-based, Fischer rat; details: untransfected FRT, 20 µM FSK + 10 µM Esc peptides or GEN, n ≥ 3
Experimental: For whole-cell experiments the extracellular (bath) solution contained (in mM): 150 NaCl, 1 CaCl2, 1 MgCl2, 10 glucose, 10 mannitol, 10 Na-HEPES (pH 7.4). The pipette (intracellular) solution contained (in mM): 120 CsCl, 10 TEA-Cl, 0.5 EGTA, 1 MgCl2, 10 Cs-HEPES, 40 mannitol, 1 ATP. To activate CFTR, 20 µM FSK was added to the extracellular solution to phosphorylate the channel. In some samples the combination FSK + 50 µM GEN (positive control) as well as FSK + 10 µM peptides were added to the extracellular solution to test their potentiator activity.
For both patch configurations, the protocol to correlate current intensity and voltage for stimulation consisted of 500-ms voltage steps from -100 to + 100 mV or from -80 to + 120 mV in 20 mV increments, starting from a holding potential of -60 mV. The time-dependence of CFTR activation and inactivation was monitored by application of steps of 50 ms pulses to − 100, − 50, 0, 50 and 100 mV every 5 s from a holding potential of − 60 mV. The interval between steps was 4 s. Membrane currents were filtered at 1 kHz and digitized at 5 kHz by a low–pass 4–pole Bessel filter. […]
Whole-cell membrane currents were recorded in null FRT cells not expressing CFTR by using the same experimental solutions and stimulation protocols as described in the main text for F508del- FRT.

[8] = ivacaftor-based treatment of patients; cited from earlier work
Description: Many proof-of-concept studies have disclosed that chemically modified ATP analogs and small organic molecules (e.g., isoflavones) have good potentiation effect by enhancing CFTR channel gating. However, the expected unspecific binding of ATP analogs to other proteins implicated in physiological functions limits the development of these molecules to the clinic. Other compounds capable of improving the activity of mutant CFTR can promote its phosphorylation by inhibiting phosphodiesterase’s activity, to heighten the intracellular level of cAMP. Ivacaftor was the first CFTR potentiator approved f ...

In the case of “Gly-Ile-Phe-Ser-Lys-Leu-Ala-Gly-Lys-Lys-Ile-Lys-Asn- DLeu -Leu-Ile-DphosphoSer-Gly-Leu-Lys-Gly-NH2 [[DLeu^14, DphosphoSer^17]Esc, Esc analog with DLeu14 and D-phosphoSer at position 17]”, the “CFTR-mediated conductance (ΔG) compared to FSK-treated samples” value (F508del-CFTR [1]) is reported as “about twofold” and the “current intensity at + 100 mV compared to control basal conditions” value (F508del-CFTR [2]) is reported as ~ 2.5 fold.
With “GIFSKLAGKKIKN[dL]LI[dS]GLKG-NH2 [Esc(1–21)-1c, diastereomer of Esc(1–21) carrying D-Leu14 and D-Ser17]” the “change of TEER / transepithelial conductance (G) versus DMSO control” value [3] was “do not alter”, the “change of TEER / transepithelial conductance (G) versus DMSO control” value [4] was “do not alter” and the “CFTR-mediated conductance (ΔG) compared to FSK-treated samples” value (F508del-CFTR [1]) was “slightly more pronounced”. For the same compound, the “susceptibility to proteolytic degradation compared with Esc(1–21)” value [5] was “less susceptible”, the “toxicity or inflammatory side events” value [6] was “without eliciting toxicity or inflammatory side events” and the “effectiveness in contrasting P. aeruginosa pulmonary infection” value ([6]; mice) was “higher effectiveness than the all-L counterpart”. For the same compound, the “promotion of re-epithelialization compared with Esc(1–21)” value (wt-CFBE and F508del-CFBE) was “more efficient”.
With O=c1c(-c2ccc(O)cc2)coc2cc(O)cc(O)c12 [GEN, genistein] the “change of ion current” value [7] was “no significant change”.
For CC(C)(C)c1cc(C(C)(C)C)c(NC(=O)c2c[nH]c3ccccc3c2=O)cc1O [VX-770, ivacaftor], the enhanced lung function [8] is given as 10%.
With “Gly-Ile-Phe-Ser-Lys-Leu-Ala-Gly-Lys-Lys-Ile-Lys-Asn-Leu-Leu-Ile-Ser-Gly-Leu-Lys-Gly- NH2 [Esc(1–21)]” the “change of TEER / transepithelial conductance (G) versus DMSO control” value [3] was “do not alter” and the “change of TEER / transepithelial conductance (G) versus DMSO control” value [4] was “do not alter”.
